Assay [1] has as its target RNA-directed RNA polymerase (Hepacivirus hominis, UniProt O39930). The assay can be described thus: Inhibitory activity against Hepatitis C virus RNA dependent RNA polymerase nonstructural protein 5B.
Assay [2] concerns the target Nucleic Acid. Description: Inhibitory activity against alpha human DNA polymerase was determined. The class given is nucleic-acid assay.
Assay [3] has as its target Nucleic Acid. The assay can be described thus: Inhibitory activity against beta human DNA polymerase was determined. Format: nucleic-acid assay.
Assay [4] has as its target Human immunodeficiency virus type 1 reverse transcriptase (Human immunodeficiency virus 1, UniProt Q72547). Description: Inhibitory activity against HIV-1 reverse transcriptase was determined.
Assay [5] concerns the target Nucleic Acid. Description: Inhibitory activity against gamma human DNA polymerase was determined. The class given is nucleic-acid assay.

Chain of RNA-directed RNA polymerase (O39930 whole entry): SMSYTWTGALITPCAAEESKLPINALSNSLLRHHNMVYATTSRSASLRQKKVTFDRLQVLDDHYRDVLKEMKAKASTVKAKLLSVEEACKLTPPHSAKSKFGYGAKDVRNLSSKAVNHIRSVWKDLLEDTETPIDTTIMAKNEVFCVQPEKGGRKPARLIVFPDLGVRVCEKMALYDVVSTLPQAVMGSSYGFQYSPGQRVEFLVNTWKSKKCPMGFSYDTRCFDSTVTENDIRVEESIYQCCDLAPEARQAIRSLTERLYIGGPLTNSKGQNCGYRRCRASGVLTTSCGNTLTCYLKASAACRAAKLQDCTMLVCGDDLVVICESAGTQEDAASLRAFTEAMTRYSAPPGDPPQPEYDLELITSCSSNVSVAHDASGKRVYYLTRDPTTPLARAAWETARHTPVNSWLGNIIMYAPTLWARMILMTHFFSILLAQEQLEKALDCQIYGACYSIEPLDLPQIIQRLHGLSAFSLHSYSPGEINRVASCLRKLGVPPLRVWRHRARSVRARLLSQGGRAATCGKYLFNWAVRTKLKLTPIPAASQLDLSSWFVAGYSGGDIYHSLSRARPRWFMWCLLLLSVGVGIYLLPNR

By IC50 is commonly meant the point on the concentration scale where inhibition reaches its midpoint. Regarding `O=C(O)C(=O)CCc1ccccc1`, in assay [1], the IC50 is above 50 µM.
In assay [1], `CCc1ccc(C(=O)CC(=O)C(=O)O)cc1` gave an IC50 of 47 µM. In other words, the double-digit micromolar range.
For the compound `N#Cc1c(Cl)cc(Cl)cc1COc1cccc(/C(O)=C/C(=O)C(=O)O)c1`, the IC50 was above 5 µM against Nucleic Acid [2]; above 5 µM against Nucleic Acid [3]; 0.045 µM in assay [1]; above 50 µM in assay [4]; above 5 µM at Nucleic Acid [5].
In the case of `CCCOc1ccccc1C(=O)CC(=O)C(=O)O`, in assay [1], the IC50 stood at 3.9 µM.
Same read-out and setting: the figure for `Cc1ccc(C(=O)CC(=O)C(=O)O)cc1` is 5 µM.
Same read-out and setting: for `O=C(O)C(=O)CC(=O)c1cccc(COc2ccccc2)c1` the value was 30 µM; for `N#CCCCOc1ccccc1C(=O)CC(=O)C(=O)O`, 0.35 µM.
The same measure, in the same setting: the figure for `N#CCCCOc1ccc(OCc2ccccc2C#N)cc1/C(O)=C/C(=O)C(=O)O` is above 50 µM; for `O=C(O)C(=O)CC(=O)c1cccc(NS(=O)(=O)c2ccccc2)c1` it is 16 µM.
Take `N#CCCCOc1cccc(/C(O)=C/C(=O)C(=O)O)c1`: in assay [1], the IC50 was 2.5 µM. This IC50 lies about 6.4-fold lower than the previous one.
Same read-out and setting: for `O=C(O)C(=O)CC(=O)c1ccncc1` the value was above 50 µM; for `CCCCOc1ccccc1C(=O)CC(=O)C(=O)O`, 10 µM; for `COC(=O)C(=O)CC(=O)c1ccccc1`, above 50 µM.
Still for that read-out and setting: for `O=C(O)C(=O)CC(=O)c1ccco1` the value was above 50 µM; for `O=C(O)C(=O)CC(=O)C(c1ccccc1)c1ccccc1`, above 50 µM; for `CC(C)(C)c1ccc(C(=O)CC(=O)C(=O)O)cc1`, above 50 µM.
In the case of `O=C(CC(O)C(=O)O)c1ccccc1` (stereo not given), the IC50 in assay [1] was above 50 µM.
As to `N#Cc1ccccc1COc1cccc(/C(O)=C/C(=O)C(=O)O)c1`, 0.23 µM corresponded to half-maximal inhibition in assay [1] (IC50).
On the same count and under the same terms, the figure for `N#Cc1cccc(COc2cccc(/C(O)=C/C(=O)C(=O)O)c2)c1` is 6.7 µM; for `O=C(O)C(=O)CC(=O)c1cccnc1` it is above 50 µM; for `CC(C)(C)C(=O)CC(=O)C(=O)O` it is above 50 µM.
The same measure, in the same setting: for `O=C(O)C(=O)CC(=O)c1ccsc1` the value was 4.5 µM; for `O=C(O)C(=O)CC(=O)c1cccc(OCc2ccccc2)c1`, 8 µM.
`O=C(O)C(=O)CC(=O)c1ccccc1`: in assay [1], the midpoint of inhibition, the IC50, lay at 5.7 µM. The IC50 values of the last two compounds are within 1.5-fold of each other.
The same measure, in the same setting: the figure for `N#Cc1ccc(Br)cc1COc1cccc(/C(O)=C/C(=O)C(=O)O)c1` is 0.1 µM; for `N#Cc1c(Cl)cccc1COc1cccc(/C(O)=C/C(=O)C(=O)O)c1` it is 0.11 µM; for `O=C(O)C(=O)CC(=O)c1cccc(NC(=O)c2ccccc2)c1` it is 11 µM.
Regarding `O=C(O)C(=O)CC(=O)c1cccc(NCc2ccccc2)c1`, in assay [1], the IC50 turned out to be 16.7 µM. Compared with the last compound, the IC50 is about 1.5-fold higher.
Still for that read-out and setting: for `O=C(O)C(=O)CC(=O)c1ccccc1OCc1ccccc1` the value was 44 µM; for `CCCCCOc1ccccc1C(=O)CC(=O)C(=O)O`, 25 µM.
In turn, `CC(=O)CC(=O)C(=O)O` had an IC50 in assay [1] above 50 µM.
